Data: ChEMBL document CHEMBL1147344, “New Chlorophyll-A-Related Compounds Isolated as Antioxidants from Marine Bivalves” (J Nat Prod, 1993)
Calls of active or inactive are those of the source. The calls are words filed in the database; no cut-off is given here.

Assay: Antioxidant activity assessed as inhibition of lipid peroxidation at 3 ug incubated at 40 degC in dark by paper disk method
Assay type: functional

SMILES | Activity
C=Cc1c(C)c2cc3nc4c5c6[nH]c(cc7nc(cc1[nH]2)C(C)=C7CC)c(C)c6C(=O)[C@@]5(O)C(=O)CC[C@H]4[C@@H]3C | Active
C=Cc1c(C)c2cc3nc4c5c6[nH]c(cc7nc(cc1[nH]2)C(C)=C7CC)c(C)c6C(=O)O[C@@]5(O)C(=O)CC[C@H]4[C@@H]3C | Active
C=Cc1c(C)c2cc3nc4c(c5[nH]c(cc6nc(cc1[nH]2)C(C)=C6CC)c(C)c5C(=O)OC)C(=O)C(=O)CC[C@H]4[C@@H]3C | Active
C=Cc1c(C)c2cc3nc(c4c5[nH]c(cc6nc(cc1[nH]2)C(C)=C6CC)c(C)c5C(=O)C4=O)[C@@H](CCC(=O)O)[C@@H]3C | Active
C=Cc1c(C)c2cc3nc(c4c5[nH]c(cc6nc(cc1[nH]2)C(C)=C6CC)c(C)c5C(=O)C4)[C@@H](CCC(=O)O)[C@@H]3C | Active
C=Cc1c(C)c2cc3nc(c4c5[nH]c(cc6nc(cc1[nH]2)C(C)=C6CC)c(C)c5C(=O)OC4=O)[C@@H](CCC(=O)OC)[C@@H]3C | Active
C=Cc1c(C)c2cc3nc(c4c5[nH]c(cc6nc(cc1[nH]2)C(C)=C6CC)c(C)c5C(=O)OC4=O)[C@@H](CCC(=O)O)[C@@H]3C | Active

Assay: Antioxidant activity assessed as inhibition of lipid peroxidation at 20 ug incubated at 40 degC in dark by paper disk method
Assay type: functional

SMILES | Activity
Cc1c(C)c2c(c(C)c1O)CC[C@@](C)(CCC[C@H](C)CCC[C@H](C)CCCC(C)C)O2 | Active

Assay: Antioxidant activity assessed as inhibition of lipid peroxidation in dark at 40 degC by paper disk method
Assay type: functional

SMILES | Activity
C=Cc1c(C)c2cc3nc4c5c6[nH]c(cc7nc(cc1[nH]2)C(C)=C7CC)c(C)c6C(=O)[C@]5(O)C(=O)CC[C@H]4[C@@H]3C | Active
